Measurements reported in patent US8536132B2, “Lymphatic zip codes in tumors and pre-malignant lesions” (Sanford-Burnham Medical Research Institute, priority 2006, dated 2013).
Entries after “also recorded” stand apart in the source; their conditions may differ. Marks after values point to notes of the source that are not given here.

Tests used:
[1] = tested on: K14-HPV16/E2 cervical dysplasia; assay: In vivo phage homing to K14-HPV16/E2 cervical dysplasia (CIN-3); parameters: species or system mouse
Protocol: (§1) The following cell lines were maintained in DMEM supplemented with 10% FCS: C8161 human melanoma, MDA-MB-435 human breast cancer, KRIB human osteosarcoma, and human prostate cancer cells PPC1, DU145. LNCaP human prostate cancer cell line was grown in RPMI 1640 medium with 10 mM HEPES, 1 mM sodium pyruvate and 1.5 g/L sodium bicarbonate supplemented with 10% FCS. M12 human prostate cancer cell line was cultured in RPMI 1640 with 5 μg/ml insulin-transferrin-sodium selenite (ITS), 2.5 μg/ml fungizone, 50 μg/ml gentamycin, 0.2 μM dexamethasone, 10 ng/ml epidermal growth factor (EGF), and 5% FCS (Bae et al., 1998). To produce tumors, nude BALB/c and C56BL/6 mice were subcutaneously (C8161, KRIB, and PPC1) or orthotopically ([…], PPC1, DU145, M12, and LNCaP) injected with 1×10^6 tumor cells. Transgenic mouse tumor models included TRAMP prostate cancer, MMTV-PyMT breast cancer, and K14-HPV16 cervical cancer. To initiate cervical carcinogenesis, female K14-HPV16 mice (Arbeit et al., 1994) were treated with 17β-estradiol (E2; (Arbeit et al., 1996; Giraudo et al., 2004). Briefly, one-month-old virgin female transgenic (heterozygous K14-HPV16, 1203#1) and nontransgenic (FVB/n) mice were anesthetized with isoflurane, and continuous release pellets that deliver E2 at doses of 0.05 mg over 60 days (Innovative Research of America, Sarasota, Fla., USA) were implanted subcutaneously in the dorsal back skin. Subsequent pellets were implanted at 3 and 5 months of age for a total of 6 months of hormone treatment. K14-HPV16 mice were maintained in the FVB/n background (FVB/n; The Jackson Laboratory). The mice were maintained in accordance with the University of California, San Francisco (UCSF) institutional guidelines governing the care of laboratory mice. The animal experimentation was approved by Animal Research Committees at UCSF or The Burnham Institute.
(§2) In vivo homing specificity of phage was tested as described (Hoffman, 2004). Briefly, mice bearing tumors were anesthetized and intravenously injected with 5×10^9 pfu of phage. After 7 min, the mice were perfused through the heart with PBS containing 0.5% BSA. The tumor and control organs were dissected from each mouse and the phage were rescued and tittered. For histology analysis, the mice were perfused with 4% PFA 30 min after the injection of phage. Tissues were embedded in Tissue-Tek O.C.T. and 5 μm sections were prepared for phage immunostaining.

normal tissues = assay: In vivo phage homing to normal and control tissues; parameters: species or system mouse; details: for phage in other tissues versus nonrecombinant control phage: lymph nodes, kidneys, lungs, skin, gut
Protocol: as §2

[2] = tested on: human prostate tumor sections; assay: Phage overlay of tissue sections from human prostate cancer; details: two primary human prostate cancers
Protocol: The frozen sections of human prostate tumor specimens were obtained from Dr. Daniel Mercola (Sidney Kimmel Cancer Center, La Jolla, Calif.). The sections (5 μm) were preincubated with blocking buffer (5% normal goat serum and 0.5% BSA in 1×PBS) for 1 hr at room temperature, washed three times with diluted blocking buffer (1:10), and phage (3×10^9 pfu) were incubated on the section for 4 hrs. After 3 washes, rabbit anti-phage antibody (10 μg/ml) was added and the phage incubated for 2 hrs. The slides were washed and incubated with AlexaFluor-488 goat anti-rabbit IgG for 1 hr. After further washes, the slides were mounted with Vectashield (VECTOR, Burlingame, Calif.).

TRAMP prostate tumors [3] = assay: In vivo phage homing to TRAMP prostate tumors; parameters: species or system mouse; details: for Fold over control phage / Specific Homing: phage homing in vivo, TRAMP prostate tumors; for phage homing to TRAMP prostate tumors (in words): i.v. injected phage
Protocol: as §1, §2

[4] = tested on: K14-HPV16/E2 cervical tumors; assay: In vivo phage homing to K14-HPV16/E2 cervical tumors; parameters: species or system mouse; details: for phage homing to K14-HPV16/E2 cervical tumors (in words): i.v. injected phage; for Fold over control phage / Specific Homing: phage homing in vivo, K14-HPV16/E2 cervical cancer / cervical tumors
Protocol: as §1, §2

[5] = tested on: pre-malignant TRAMP lesions
Protocol: (§3) Custom immunization to produce a rabbit antiserum against mouse Prox-1 was performed by Proteintech Inc. New Zealand White rabbits were immunized with a fusion protein of GST-C-terminal fragment of Prox-1 protein. The antibody was affinity purified on the fusion protein and absorbed with GST. […] Antibodies against the lymphatic markers anti-LYVE-1 (Laakkonen et al., 2002) and anti-podoplanin (kindly provided by T. Petrova and K. Alitalo), rat monoclonal anti-mouse CD31 (BD Pharmingen), rat anti-mouse MECA-32 (Pharmingen), rabbit polyclonal anti-T7 phage, and rat anti-mouse VEGFR3 were used for immunohistochemical staining of frozen tissue sections as described (Joyce et al., 2003; Laakkonen et al., 2002). The corresponding secondary antibodies were added and incubated for 1 hr at room temperature: AlexaFluor-488 goat anti-rat or rabbit IgG (1:1000; Molecular Probes, Eugene, Oreg.), AlexaFluor-594 goat anti-rat or rabbit IgG (1:1000, Molecular Probes), AlexaFluor-594 donkey anti-mouse or goat IgG (1:1000, Molecular Probes), and AlexaFluor-488 donkey anti-mouse or goat IgG (1:1000; Molecular Probes), respectively. The slides were washed three times with PBS and mounted in Vectashield Mounting Medium with DAPI (Vector Laboratories, Burlingame, Calif.). Blood vessels were also visualized by intravenously injecting Lycopersicon esculentum (tomato) lectin conjugated to fluorescein (100 μg of lectin in 200 μl of PBS; Vector Laboratories). […] The injected peptides were allowed to circulate 30 min to 2 hrs, and the mice were perfused with 4% paraformaldehyde through the left ventricle of heart. Tissues were dissected and frozen in OCT embedding medium (Tissue-Tek, Elkhart, Ind.). The frozen sections were prepared for immunohistological analysis.

TRAMP prostate tumors [6] = details: for fluorescent peptide in TRAMP prostate tumors (in words): fluorescein-conjugated peptide i.v.
Protocol: as §3

TRAMP PIN lesions = assay: In vivo phage homing to TRAMP pre-malignant (PIN) lesions; parameters: species or system mouse; details: for phage homing to TRAMP pre-malignant lesions (in words): i.v. injected phage
Protocol: as §1, §2

MMTV-PyMT breast tumors = assay: In vivo phage homing to MMTV-PyMT breast tumors; parameters: species or system mouse; details: for phage homing to MMTV-PyMT breast tumors (in words): i.v. injected phage; for Fold over control phage / Specific Homing: phage homing in vivo, MMTV-PyMT breast tumors
Protocol: as §1, §2

[7] = tested on: LNCaP orthotopic xenografts; assay: In vivo phage homing to LNCaP orthotopic xenografts; parameters: species or system mouse; details: for phage homing to LNCaP xenografts (in words): i.v. injected phage
Protocol: as §1, §2

KRIB xenografts = assay: In vivo phage homing to KRIB xenografts; parameters: species or system mouse
Protocol: as §1, §2

[8] = phage homing in vivo, K14-HPV16/E2 cervical dysplasia
[9] = phage and fluorescein-labeled peptide, TRAMP pre-malignant lesions
[10] = phage homing in vivo, TRAMP PIN lesions
[11] = phage homing in vivo, LNCaP orthotopic xenografts
[12] = phage homing in vivo, KRIB xenografts
[13] = phage and fluorescein-labeled peptide, TRAMP tumors

CAGRRSAYC [homing peptide for pre-malignant TRAMP prostate lesions]
phage homing to K14-HPV16/E2 pre-malignant cervical lesions (in words) ([1]; i.v. injected phage): little homing of the phage
Fold over control phage [1, 8]: 5 fold
Specific Homing [1, 8]: No
phage in other tissues versus nonrecombinant control phage (normal tissues): Neither phage was found in other tissues
phage binding to human prostate tumor sections (in words) [2]: did not bind
Fold over control phage (TRAMP prostate tumors [3]): 4 fold
Specific Homing (TRAMP prostate tumors [3]): No
phage homing to K14-HPV16/E2 cervical tumors (in words) [4]: little homing of the phage
Fold over control phage [4]: 4 fold
Specific Homing [4]: No
co-localization with lymphatic markers podoplanin, VEGFR3, LYVE-1, Prox-1 [5, 9]: substantial co-localization
localization versus blood vessel markers CD31 and MECA-32 [5, 9]: entirely distinct
fluorescent peptide in TRAMP prostate tumors (in words) (TRAMP prostate tumors [6]): little or no peptide was seen
phage homing to TRAMP pre-malignant lesions (in words) (TRAMP PIN lesions; listed as AGR phage): selectively home to pre-malignant lesions; also recorded: homed significantly more; also recorded: homes only to pre-malignant lesions; also recorded: marked preference
enrichment to pre-malignant TRAMP lesions relative to nonrecombinant phage (TRAMP PIN lesions; phage clones tested in vivo individually): 24 fold
Fold over control phage (TRAMP PIN lesions; [10]): 18 fold
Specific Homing (TRAMP PIN lesions; [10]): Yes
phage homing to MMTV-PyMT breast tumors (in words) (MMTV-PyMT breast tumors): little homing of the phage
Fold over control phage (MMTV-PyMT breast tumors): 4 fold
Specific Homing (MMTV-PyMT breast tumors): No

CREAGRKAC [homing peptide for prostate tumor lymphatics]
phage homing to LNCaP xenografts (in words) ([7]; listed as REA phage): homed
phage homing to LNCaP xenografts (in words) ([7]; listed as REA-phage): Significant phage homing
Fold over control phage [7, 11]: 20 fold
Specific Homing [7, 11]: Yes
phage homing to KRIB xenografts (in words) (KRIB xenografts; i.v. injected phage): negative for REA binding
Fold over control phage (KRIB xenografts; [12]): 7^‡ fold
Specific Homing (KRIB xenografts; [12]): Yes
phage in other tissues versus nonrecombinant control phage (normal tissues): Neither phage was found in other tissues
phage homing to normal prostate (normal tissues; tumor-free littermates of TRAMP mice): not to pre-malignant lesions or normal prostate
phage binding to human prostate tumor sections (in words) [2]: recognizes the lymphatics of human prostate tumors
enrichment in TRAMP tumors relative to nonrecombinant phage (TRAMP prostate tumors [3]; i.v. injected phage clone): 50 fold
phage homing to TRAMP prostate tumors (in words) (TRAMP prostate tumors [3]; listed as REA phage): homes to tumors
phage homing to TRAMP prostate tumors (in words) (TRAMP prostate tumors [3]; listed as REA-phage): accumulate in TRAMP tumors; also recorded: Significant phage homing
Fold over control phage (TRAMP prostate tumors [3]): 46 fold
Specific Homing (TRAMP prostate tumors [3]): Yes
phage homing to K14-HPV16/E2 cervical tumors (in words) [4]: slightly positive
Fold over control phage [4]: 7^‡ fold
Specific Homing [4]: Yes
fluorescent peptide in TRAMP pre-malignant lesions (in words) ([5]; fluorescein-conjugated peptide i.v.): negative
fluorescent peptide in TRAMP prostate tumors (in words) (TRAMP prostate tumors [6]): accumulated in prostate tumors
overlap with podoplanin-positive lymphatic vessels (TRAMP prostate tumors [6]; fluorescein-conjugated peptide, prostate tumors): 90%
co-localization with lymphatic markers podoplanin, VEGFR3, LYVE-1, Prox-1 (TRAMP prostate tumors [6]; [13]): substantial co-localization
localization versus blood vessel markers CD31 and MECA-32 (TRAMP prostate tumors [6]; [13]): entirely distinct
phage homing to TRAMP pre-malignant lesions (in words) (TRAMP PIN lesions): not to pre-malignant lesions or normal prostate
phage homing to MMTV-PyMT breast tumors (in words) (MMTV-PyMT breast tumors): negative for REA binding
Fold over control phage (MMTV-PyMT breast tumors): 8^‡ fold
Specific Homing (MMTV-PyMT breast tumors): Yes
